From ChEMBL document CHEMBL1122842, “Beta-adrenoceptor activity of the stereoisomers of the bufuralol alcohol and ketone metabolites” (J Med Chem, 1985)

Target: Beta-1 adrenergic receptor (Rattus norvegicus) (UniProt P18090)
Details: Heart
Description: Beta-1 adrenergic receptor agonist activity as increased heart rate by 30 beats/min in rats

Beta-1 adrenergic receptor (Rattus norvegicus), sequence (P18090 whole entry, looked up): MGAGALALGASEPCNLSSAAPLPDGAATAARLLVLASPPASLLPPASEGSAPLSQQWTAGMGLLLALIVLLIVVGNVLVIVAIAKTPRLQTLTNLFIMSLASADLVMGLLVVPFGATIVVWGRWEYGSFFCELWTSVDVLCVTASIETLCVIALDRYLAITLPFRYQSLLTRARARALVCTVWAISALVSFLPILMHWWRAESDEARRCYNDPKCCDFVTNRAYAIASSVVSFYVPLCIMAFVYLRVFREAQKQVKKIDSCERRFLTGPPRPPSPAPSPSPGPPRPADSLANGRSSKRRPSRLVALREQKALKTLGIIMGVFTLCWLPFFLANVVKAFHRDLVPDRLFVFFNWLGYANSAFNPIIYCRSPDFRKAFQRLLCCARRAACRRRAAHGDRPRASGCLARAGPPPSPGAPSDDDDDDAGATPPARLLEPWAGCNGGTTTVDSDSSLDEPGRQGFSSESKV

How did the ED30 turn out when `CC(=O)c1cccc2cc([C@@H](O)CNC(C)(C)C)oc12` was run?
The ED30 was 0.0006 mg/kg.

How did the ED30 turn out when `CC(=O)c1cccc2cc([C@H](O)CNC(C)(C)C)oc12` was run?
Its ED30 is 0.032 mg/kg.

How did the ED30 turn out when `CCc1cccc2cc([C@@H](O)CNC(C)(C)C)oc12` was run?
The ED30 was 0.053 mg/kg.

For `CCc1cccc2cc([C@H](O)CNC(C)(C)C)oc12`, which ED30 is on record?
The ED30 was over 1 mg/kg.

Which ED30 does the source give for `CC(O)c1cccc2cc([C@@H](O)CNC(C)(C)C)oc12` (stereo in doubt; form 1) here?
The ED30 was 0.019 mg/kg.

For `CC(O)c1cccc2cc([C@H](O)CNC(C)(C)C)oc12` (stereo in doubt; form 1), which ED30 is on record?
The ED30 was over 1 mg/kg.

How did the ED30 turn out when `CC(O)c1cccc2cc([C@@H](O)CNC(C)(C)C)oc12` (stereo in doubt; form 2) was run?
The ED30 was 0.0007 mg/kg.

`CC(O)c1cccc2cc([C@H](O)CNC(C)(C)C)oc12` (stereo in doubt; form 2) was tested. Which ED30 did it give?
The ED30 was 0.305 mg/kg.
